Source: ChEMBL document CHEMBL1201862, “PubChem BioAssay data set” (2004)
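Cells were grown in 96-well plates and exposed to each compound for 48 hours at five concentrations; endpoints were interpolated linearly between bracketing concentrations, or set to the highest concentration if not reached. GI50 is the concentration that inhibits growth by half.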 Calls of active or inactive are those of the source. No stated cut-off is given here; in the data, active = GI50 up to about 1.1 µM and inactive = higher.

How the values were obtained:
Experiment in all cases: NCI anticancer screen, dose series, 48 h
A498 = tested on: A498
A549 = tested on: A549
CAKI-1 = tested on: CAKI-1
CCRF-CEM = tested on: CCRF-CEM
COLO 205 = tested on: COLO 205
DU-145 = tested on: DU-145
HCC 2998 = tested on: HCC 2998
HCT-116 = tested on: HCT-116
HT-29 = tested on: HT-29
MCF7 = tested on: MCF7
MDA-MB-435 = tested on: MDA-MB-435
NCI-H226 = tested on: NCI-H226
NCI/ADR-RES = tested on: NCI/ADR-RES
OVCAR-5 = tested on: OVCAR-5
PC-3 = tested on: PC-3
SF-295 = tested on: SF-295
SNB-19 = tested on: SNB-19
SNB-75 = tested on: SNB-75
SR = tested on: SR
UACC-62 = tested on: UACC-62

Row | SMILES | GI50 (A498) | GI50 (A549) | GI50 (CAKI-1) | GI50 (CCRF-CEM) | GI50 (COLO 205) | GI50 (DU-145) | GI50 (HCC 2998) | GI50 (HCT-116) | GI50 (HT-29) | GI50 (MCF7) | GI50 (MDA-MB-435) | GI50 (NCI-H226) | GI50 (NCI/ADR-RES) | GI50 (OVCAR-5) | GI50 (PC-3) | GI50 (SF-295) | GI50 (SNB-19) | GI50 (SNB-75) | GI50 (SR) | GI50 (UACC-62)
1 | O=C1C=CC(=O)C(CNc2ccc(C(=O)OCc3ccccc3)cc2)=C1 | 11.2 µM (inactive) | 14.5 µM (inactive) | 1.38 µM (inactive) | 0.661 µM (active) | 1.86 µM (inactive) | 12.2 µM (inactive) | 16 µM (inactive) | 5.3 µM (inactive) | 15.2 µM (inactive) | 4.57 µM (inactive) | 5.06 µM (inactive) | 12.3 µM (inactive) | 4 µM (inactive) | 15.6 µM (inactive) | 3.36 µM (inactive) | 17.7 µM (inactive) | 13.4 µM (inactive) | 5.25 µM (inactive) | 1.29 µM (inactive) | 8.97 µM (inactive)
2 | CN(C)/C=C/c1c2c(nc3ccccc13)C(=O)c1cccnc1C2=O | 0.865 µM (active) | 0.912 µM (active) | 1.46 µM (inactive) | 1.84 µM (inactive) | 2.07 µM (inactive) | 0.416 µM (active) | 1.28 µM (inactive) | 0.197 µM (active) | 2.2 µM (inactive) | 0.262 µM (active) | 0.548 µM (active) | 0.292 µM (active) | 0.321 µM (active) | 1.45 µM (inactive) | 0.542 µM (active) | 0.57 µM (active) | 0.562 µM (active) | 0.432 µM (active) | 0.221 µM (active) | 0.541 µM (active)
3 | C#C[C@]1(O)CC[C@H]2[C@@H]3CCC4=C/C(=N/OC(=O)c5cccc6c(=O)c7ccccc7[nH]c56)CC[C@@H]4[C@H]3CC[C@@]21C | > 100 µM (inactive) | 64.3 µM (inactive) | 37.5 µM (inactive) | 14.4 µM (inactive) | 24.4 µM (inactive) | 61.9 µM (inactive) | 50.5 µM (inactive) | 48.5 µM (inactive) | 52.5 µM (inactive) | 42.5 µM (inactive) | 43.1 µM (inactive) | 83.6 µM (inactive) | 58.6 µM (inactive) | > 100 µM (inactive) | 37.5 µM (inactive) | 92 µM (inactive) | > 100 µM (inactive) | 97.7 µM (inactive) | 12.1 µM (inactive) | 35.6 µM (inactive)
4 | CS[C@]12C(=O)C[C@@]3(C)[C@@H](CC[C@]3(O)C(=O)CO)[C@@H]1CCC1=CC(=O)CC[C@@]12C | > 100 µM (inactive) | > 100 µM (inactive) | > 100 µM (inactive) | 42.8 µM (inactive) | > 100 µM (inactive) | > 100 µM (inactive) | 26.9 µM (inactive) | > 100 µM (inactive) | 88.5 µM (inactive) | > 100 µM (inactive) | 30.1 µM (inactive) | > 100 µM (inactive) | > 100 µM (inactive) | > 100 µM (inactive) | 55 µM (inactive) | > 100 µM (inactive) | > 100 µM (inactive) | > 100 µM (inactive) | 35 µM (inactive) | > 100 µM (inactive)
5 | CC1=C(C)C(=O)C(C2=C(C3=CC(=O)C(C)=C(C)C3=O)C(=O)c3ccccc3C2=O)=CC1=O | 8.04 µM (inactive) | 5.21 µM (inactive) | 2.25 µM (inactive) | 0.619 µM (active) | 0.863 µM (active) | 2.95 µM (inactive) | 4.66 µM (inactive) | 2.14 µM (inactive) | 2.2 µM (inactive) | 1.71 µM (inactive) | 1.5 µM (inactive) | 6.14 µM (inactive) | 10.4 µM (inactive) | 13 µM (inactive) | 2.61 µM (inactive) | 12.1 µM (inactive) | 11.2 µM (inactive) | 9.79 µM (inactive) | 1.47 µM (inactive) | 2.51 µM (inactive)
6 | COc1cc(OC)c2nc(C)c(CCCl)c(Cl)c2c1 | > 100 µM (inactive) | > 100 µM (inactive) | > 100 µM (inactive) | > 100 µM (inactive) | > 100 µM (inactive) | > 100 µM (inactive) | > 100 µM (inactive) | > 100 µM (inactive) | > 100 µM (inactive) | > 100 µM (inactive) | > 100 µM (inactive) | > 100 µM (inactive) | > 100 µM (inactive) | > 100 µM (inactive) | > 100 µM (inactive) | > 100 µM (inactive) | > 100 µM (inactive) | > 100 µM (inactive) | > 100 µM (inactive) | > 100 µM (inactive)
7 | CCOC(=O)c1nc2cc(F)cc(F)c2[nH]c1=O | > 100 µM (inactive) | > 100 µM (inactive) | > 100 µM (inactive) | > 100 µM (inactive) | > 100 µM (inactive) | > 100 µM (inactive) | > 100 µM (inactive) | > 100 µM (inactive) | > 100 µM (inactive) | > 100 µM (inactive) | > 100 µM (inactive) | > 100 µM (inactive) | > 100 µM (inactive) | > 100 µM (inactive) | > 100 µM (inactive) | > 100 µM (inactive) | > 100 µM (inactive) | > 100 µM (inactive) | > 100 µM (inactive) | > 100 µM (inactive)
8 | O=c1cc(-c2ccccc2)oc2c1ccc1nc3ccccc3c(O)c12 | 27.5 µM (inactive) | 45.1 µM (inactive) | 60.7 µM (inactive) | 54.6 µM (inactive) | > 100 µM (inactive) | 61.2 µM (inactive) | 62.8 µM (inactive) | 26.4 µM (inactive) | > 100 µM (inactive) | 36.4 µM (inactive) | > 100 µM (inactive) | > 100 µM (inactive) | 42.4 µM (inactive) | > 100 µM (inactive) | > 100 µM (inactive) | 49.4 µM (inactive) | > 100 µM (inactive) | 34.9 µM (inactive) | 40.7 µM (inactive) | 67.1 µM (inactive)
9 | Nc1ccn(CC(O)c2cc3ccccc3[nH]2)c(=O)n1 (stereo not given) | > 100 µM (inactive) | > 100 µM (inactive) | > 100 µM (inactive) | > 100 µM (inactive) | > 100 µM (inactive) | > 100 µM (inactive) | > 100 µM (inactive) | > 100 µM (inactive) | > 100 µM (inactive) | > 100 µM (inactive) | > 100 µM (inactive) | > 100 µM (inactive) | > 100 µM (inactive) | > 100 µM (inactive) | > 100 µM (inactive) | > 100 µM (inactive) | > 100 µM (inactive) | > 100 µM (inactive) | > 100 µM (inactive) | > 100 µM (inactive)
10 | CCCC1NC(C#N)(C#N)C(CCC)NC1(C#N)C#N (stereo not given) | 21.7 µM (inactive) | 14.3 µM (inactive) | 0.0573 µM (active) | < 0.01 µM (active) | < 0.01 µM (active) | 3.78 µM (inactive) | 7.96 µM (inactive) | < 0.0158 µM (active) | 0.115 µM (active) | 0.0689 µM (active) | 0.106 µM (active) | 22.1 µM (inactive) | 0.243 µM (active) | 24.7 µM (inactive) | 0.318 µM (active) | 22.7 µM (inactive) | 40.9 µM (inactive) | 2.17 µM (inactive) | < 0.0173 µM (active) | 17.4 µM (inactive)
